Assays:
pigmented C57BL/6N mice = assay: Murine model of dry eye by scopolamine administration; type: in vivo, Mouse; details: for Corneal fluorescein staining score (mean ± SD): 5 μL in both eyes, one dose per day
From the text: In a model of mice, the application of transdermal scopolamine patches to the mid-tail is used to reduce aqueous tear production and thus mimic lacrimal gland insufficiency. The function of scopolamine is to induce a pharmacologic blockade of cholinergic receptors in the lacrimal gland and therefore to decrease aqueous production. The desiccation is amplified by adding environmental stress Animals are exposed to a low-humidity environment and constant airflow.
• Species: Mouse. • Strain: C57BL/6N (pigmented). • Age: Approximately 6-7 weeks (at the first day of induction). • Number/sex: 55 females (study 40; reserve 15).
Mice were treated with transdermal scopolamine administration (0.5 mg/72 h; Scopoderm TTS®). The transdermal scopolamine patch was wrapped near the tail base of the mouse, secured with cellophane tape. Patches were reapplied every 48 hours.
Mice were randomized into 4 groups of 10 animals. The study was divided into 2 experimental sets with 5 animals of each group represented.
All test items, control items and comparator item were instilled in both eyes (5 μL per administration), using a micropipette.
Tear production and corneal defects were assessed at baseline, on Days 3, 6 and 10 using phenol red thread (PRT) and corneal fluorescence staining (CFS), respectively, for each animal of the 4 groups.
A) Measurement of Aqueous Tear Production PRT Test. • Tear production was measured with the PRT test (Zone-Quick, FCI-Ophthalmics) on both eyes, before administration on Day 3 and at least one hour after the second treatment for the other days of the study. The thread was placed in the lateral cantus of the lateral conjunctival fornix for 30 seconds. The thread wet by tears would turn red, indicated aqueous tear production.
B) Corneal Fluorescein Staining (CFS) • At the different time points the measurement was performed before administration on Day 3 and at least one hour after the second treatment for the other days of the study. The eyes of the animals from all groups were examined by slit-lamp observation using blue light after 0.5% fluorescein eye drop instillation (0.5 μL). Punctuate staining was recorded with the standardized National Eye Institute (NEI) grading system giving a 0-3 score to each of the 5 areas in which the corneas were divided. Results: Animal Behaviour and Body Weights

TLR9 [1] = biological target: T1, TLR9 (Homo sapiens, UniProt Q9NR96); assay: Inhibition of TLR-9 activated by E. coli genomic DNA; type: cell-based; details: E. coli genomic DNA as activator of TLR-9
T1 sequence (Q9NR96 26-1032): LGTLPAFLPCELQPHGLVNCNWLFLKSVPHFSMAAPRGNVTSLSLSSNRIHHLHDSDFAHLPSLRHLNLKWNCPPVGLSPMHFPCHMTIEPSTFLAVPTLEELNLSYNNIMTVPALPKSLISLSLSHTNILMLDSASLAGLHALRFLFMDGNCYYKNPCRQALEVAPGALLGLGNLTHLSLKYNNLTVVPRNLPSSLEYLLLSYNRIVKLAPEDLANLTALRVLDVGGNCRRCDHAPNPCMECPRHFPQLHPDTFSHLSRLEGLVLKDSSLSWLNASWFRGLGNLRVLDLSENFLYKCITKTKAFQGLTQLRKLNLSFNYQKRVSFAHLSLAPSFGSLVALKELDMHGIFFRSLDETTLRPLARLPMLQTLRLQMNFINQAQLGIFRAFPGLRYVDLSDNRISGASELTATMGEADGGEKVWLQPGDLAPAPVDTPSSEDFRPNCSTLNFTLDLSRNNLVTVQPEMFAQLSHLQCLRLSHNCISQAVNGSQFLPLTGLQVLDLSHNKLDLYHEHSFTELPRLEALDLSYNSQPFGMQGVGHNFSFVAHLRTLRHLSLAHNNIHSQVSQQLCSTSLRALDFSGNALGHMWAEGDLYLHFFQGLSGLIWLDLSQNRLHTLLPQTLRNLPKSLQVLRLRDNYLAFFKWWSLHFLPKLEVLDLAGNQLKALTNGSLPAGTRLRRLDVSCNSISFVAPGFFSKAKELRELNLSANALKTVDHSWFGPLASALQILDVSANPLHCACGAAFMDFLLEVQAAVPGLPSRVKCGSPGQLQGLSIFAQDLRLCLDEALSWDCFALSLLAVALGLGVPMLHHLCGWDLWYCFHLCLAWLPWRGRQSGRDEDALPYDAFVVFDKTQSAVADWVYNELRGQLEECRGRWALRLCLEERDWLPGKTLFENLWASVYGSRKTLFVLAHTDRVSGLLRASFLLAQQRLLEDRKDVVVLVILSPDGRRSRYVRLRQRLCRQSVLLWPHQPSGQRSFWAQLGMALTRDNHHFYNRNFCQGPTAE
From the text: While the data of FIG. 4 indicate that SEQ ID NO:1 is more likely to form a homodimer than a heterodimer with ODN2006, additional experiments tested the antagonist activity of SEQ ID NO:1 in the presence of E. coli genomic DNA as the activator.

TLR9 [2] = biological target: T1, TLR9; assay: TLR9 activation (agonist) screen, TLR9/NF-kB luciferase reporter HEK 293 cell line; type: cell-based; parameters: host or cells: HEK 293 (TLR9/NF-kB luciferase reporter line); details: up to concentrations as high as 100 uM, 16 h treatment
Method: […] Briefly, the TLR9/NF-kB luciferase reporter HEK 293 cell line (Abeomics, San Diego, Calif.) was plated in 96-well white solid plates at 5×10^4 cells per well for 16 h. […] Luciferase activity was then measured and analyzed.

[3] = Circular Dichroism (CD) spectroscopy, thermal stability of secondary structure; type: physicochemical
From the text: SEQ ID NO:1 was therefore subjected to Circular Dichroism (CD) spectroscopy to gather information about the possible secondary structure. CD of DNA can be utilized to detect all 3 major forms of duplex structure (B, A and Z) and is sensitive to conditions that disrupt the structure such a heating. Of interest was the stability of any secondary structure detected at or above physiologic temperatures. Shown in FIG. 6 is the CD spectra of sample SEQ ID NO:1 in ddH20 at 4 C.
Additional thermal denaturation of the putative duplex was also studied in the presence of Na^+ at concentrations of 50 mM and 150 mM. Sodium fluoride was used as Cl^− ions interfere with the CD spectra in this UV region.
Additional experiments were conducted to test the influence of Mg^++ and polyamines on the stability of the structure.

TLR9 [4] = biological target: T1, TLR9; assay: Inhibition of TLR9-mediated NF-kB induction activated by CpG ODN2006, luciferase reporter HEK 293 cell line; type: cell-based; parameters: host or cells: HEK 293 (TLR9/NF-kB luciferase reporter line)
Method: SEQ ID NO:1 was next screened for dose responsive inhibition activity to determine the IC50 against TLR9-mediated NF-kB induction at seven different doses (0.1, 1, 5, 10, 25, 50 and 100 μM) in triplicate. Briefly, the TLR9/NF-kB luciferase reporter HEK 293 cell line was plated in 96-well white solid plates at 5×10^4 cells per well for 16 h. Cells were pretreated with different doses of SEQ ID NO:1 in triplicate for 1 h. Cells were then treated with 20 ug/ml of CpG ODN2006 to activate TLR9. After 16 h, luciferase activity was measured and analyzed.

## alicaforsen (GCCCAAGCTGGCATCCGTCA; chemistry not given here; listed as Homo sapiens) [SEQ ID NO:1]
Pigmented C57BL/6N mice; Day 6, alicaforsen 1 mM
  Corneal fluorescein staining score (mean ± SD): 10.5 ± 2.6
Pigmented C57BL/6N mice; Day 6, alicaforsen 10 mM
  Corneal fluorescein staining score (mean ± SD): 10.8 ± 2.0
Pigmented C57BL/6N mice; Day 10, alicaforsen 1 mM, listed as ALICAFORSEN
  Corneal fluorescein staining score (mean ± SD): 9.3 ± 3.1
Pigmented C57BL/6N mice; Day 10, alicaforsen 1 mM, listed as alicaforsen
  Corneal fluorescein staining score (mean ± SD): lower than the Vehicle group
Pigmented C57BL/6N mice; Day 10, alicaforsen 10 mM, listed as ALICAFORSEN
  Corneal fluorescein staining score (mean ± SD): 9.7 ± 2.2
Pigmented C57BL/6N mice; Day 10, alicaforsen 10 mM, listed as alicaforsen
  Corneal fluorescein staining score (mean ± SD): lower than the Vehicle group
Pigmented C57BL/6N mice; multiple topical administrations, 1 mM and 10 mM
  clinical tolerability: clinically well tolerated
TLR9 [1]
  antagonist activity in the presence of E. coli genomic DNA as the activator: remained antagonistic
TLR9 [2]
  agonist activity (TLR9 activation): devoid of agonist activity
[3]; 50 and 150 mM sodium, samples cooled back to 20° C. after heating
  intensity of the 190 nm peak after cooling back: returned to pre-heated levels
[3]; both 50 and 150 mM sodium (sodium fluoride), to 40° C.
  structure retained (intensity of the 190 nm peak) on heating: at least 50%
[3]; in ddH20, heating to 80° C.
  loss of signal strength of positive CD band at 190 nm: > 85%
[3]; spermine at 5 mM in the presence of 50 mM Na+
  effect of spermine on secondary structure (CD spectra): completely abolished the secondary structure
TLR9 [4]; ODN2006 as activator
  TLR-9 antagonist activity: antagonist of TLR-9
TLR9 [4]; comparative dose responses, FIG. 3
  concentrations required for TLR-9 antagonism compared with inhibition of ICAM-1 expression: requires higher concentrations than the inhibition of ICAM-1 expression
